The record followed here is publication doi:10.1101/2021.06.24.449719v1 (biorxiv, 2021).

One experiment relates to BuGH3MLG. Description: PAHBAH reducing sugar assay, […] nm. The conditions noted are these: 30 min hydrolysis. Format: biochemical, Bacteroides uniformis.
In the case of `OC[C@H]1O[C@@H](O[C@H]2[C@H](O)[C@@H](O)C(O)O[C@@H]2CO)[C@H](O)[C@@H](O)[C@@H]1O` (stereo partly shown) [Cellobiose], the Km amounted to 7.4 ± 1.24 µM. Same read-out and setting: the same measure for `OC[C@H]1O[C@@H](O[C@H]2[C@H](O)[C@@H](O)[C@H](O[C@H]3[C@H](O)[C@@H](O)[C@H](O[C@H]4[C@H](O)[C@@H](O)C(O)O[C@@H]4CO)O[C@@H]3CO)O[C@@H]2CO)[C@H](O)[C@@H](O)[C@@H]1O` (stereo partly shown) [Cellotetraose]: 56.9 ± 9 µM; for `OC[C@H]1O[C@@H](O[C@H]2[C@H](O)[C@@H](O)[C@H](O[C@H]3[C@H](O)[C@@H](O)C(O)O[C@@H]3CO)O[C@@H]2CO)[C@H](O)[C@@H](O)[C@@H]1O` (stereo partly shown) [Cellotriose]: 26.1 ± 5.5 µM; for `OC[C@H]1O[C@@H](O[C@H]2[C@H](O)[C@@H](O)[C@H](O[C@H]3[C@H](O)[C@@H](O)[C@H](O[C@H]4[C@H](O)[C@@H](CO)OC(O)[C@@H]4O)O[C@@H]3CO)O[C@@H]2CO)[C@H](O)[C@@H](O)[C@@H]1O` (stereo partly drawn) [G4G4G3G, β-d-Glc^iv(1→4)β-d-Glc^iii(1→4)β-d-Glc^ii(1→3)-d-Glc^i]: 28.2 ± 6.2 µM.

In the case of `OC[C@H]1O[C@@H](OC[C@H]2OC(O)[C@H](O)[C@@H](O)[C@@H]2O)[C@H](O)[C@@H](O)[C@@H]1O` (stereo partly shown) [Gentiobiose], the Km worked out at 241 ± 16.2 µM. Take `OC[C@H]1O[C@@H](O[C@H]2[C@H](O)[C@@H](CO)OC(O)[C@@H]2O)[C@H](O)[C@@H](O)[C@@H]1O` (stereo partly shown) [Laminaribiose]: the Km was found to be 7.1 ± 1.2 µM. Same read-out and setting: the same measure for `OC[C@H]1O[C@@H](O[C@@H]2[C@@H](O)[C@H](O[C@@H]3[C@@H](O)[C@H](O[C@H]4[C@H](O)[C@@H](CO)OC(O)[C@@H]4O)O[C@H](CO)[C@H]3O)O[C@H](CO)[C@H]2O)[C@H](O)[C@@H](O)[C@@H]1O` (stereo partly shown) [Laminaritetrose]: 9.9 ± 1.1 µM. The same measure, in the same setting: the same measure for `OC[C@H]1O[C@@H](O[C@@H]2[C@@H](O)[C@H](O[C@H]3[C@H](O)[C@@H](CO)OC(O)[C@@H]3O)O[C@H](CO)[C@H]2O)[C@H](O)[C@@H](O)[C@@H]1O` (stereo partly shown) [Laminaritriose]: 7.5 ± 0.5 µM; for `OC[C@H]1O[C@@H](O[C@H]2[C@H](O)[C@@H](O)[C@H](O[C@H]3[C@H](O)[C@@H](CO)OC(O)[C@@H]3O)O[C@@H]2CO)[C@H](O)[C@@H](O)[C@@H]1O` (stereo partly drawn) [β-D-cellobiosyl-glucose, β-d-Glc^iii(1→4)β-d-Glc^ii(1→3)-d-Glc^i]: 41.3 ± 7 µM.

A further experiment has as its system BuGH3MLG. Description: p-nitrophenol release, absorbance […] nm. Format: biochemical, Bacteroides uniformis. Conditions: sodium phosphate pH 5.7, 37 °C.
`O=[N+]([O-])c1ccc(O[C@@H]2O[C@H](CO)[C@@H](O[C@@H]3O[C@H](CO)[C@@H](O)[C@H](O)[C@H]3O)[C@H](O)[C@H]2O)cc1` [p-Nitrophenyl β-D-cellobioside]: the Km came out at 640 ± 90 µM. The same measure, in the same setting: the figure for `O=[N+]([O-])c1ccc(O[C@@H]2O[C@H](CO)[C@@H](O)[C@H](O[C@@H]3O[C@H](CO)[C@@H](O)[C@H](O)[C@H]3O)[C@H]2O)cc1` [p-Nitrophenyl β-D-laminaribioside] is 880 ± 160 µM.

As for `O=[N+]([O-])c1ccc(O[C@@H]2O[C@H](CO)[C@@H](O)[C@H](O)[C@H]2O)cc1` [p-Nitrophenyl-β-D-glucopyranoside], the Km was 530 ± 120 µM. On the same count and under the same terms, the figure for `CC(=O)N[C@H]1[C@H](Oc2ccc([N+](=O)[O-])cc2)O[C@H](CO)[C@@H](O)[C@@H]1O` [p-nitrophenyl-N-acetyl glucosaminide] is 2900 ± 700 µM.

As a reminder, the Km is the concentration of substrate that gives half-maximal velocity.
